{
  "source": "ChEMBL document CHEMBL5223094",
  "about": "“Recent advancements in chromone as a privileged scaffold towards the development of small molecules for neurodegenerative therapeutics” (RSC Med Chem, 2022)",
  "key": {"Cholinesterase": {"target": "Cholinesterase (Equus caballus, UniProt P81908)", "sequence (P81908 whole entry)": "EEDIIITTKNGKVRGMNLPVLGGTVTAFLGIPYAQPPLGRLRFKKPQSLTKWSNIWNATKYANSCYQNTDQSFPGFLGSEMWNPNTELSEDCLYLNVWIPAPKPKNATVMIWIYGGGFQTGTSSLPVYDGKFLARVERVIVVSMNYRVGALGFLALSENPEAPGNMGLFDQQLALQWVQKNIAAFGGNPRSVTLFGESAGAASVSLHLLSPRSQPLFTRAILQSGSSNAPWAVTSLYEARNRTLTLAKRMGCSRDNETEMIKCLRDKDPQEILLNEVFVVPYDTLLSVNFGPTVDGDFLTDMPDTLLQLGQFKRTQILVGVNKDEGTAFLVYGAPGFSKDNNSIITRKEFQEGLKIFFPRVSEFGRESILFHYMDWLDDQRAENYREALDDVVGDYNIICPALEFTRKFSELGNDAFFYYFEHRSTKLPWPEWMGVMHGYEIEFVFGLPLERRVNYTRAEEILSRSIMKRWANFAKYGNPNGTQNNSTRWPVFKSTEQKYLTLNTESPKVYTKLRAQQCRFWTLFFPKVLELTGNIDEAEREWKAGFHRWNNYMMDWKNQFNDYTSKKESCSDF", "test": "Inhibition of equine serum BuchE using butyrylthiocholine iodide as substrate preincubated for 10 mins followed by substrate addition and measured after 20 mins by DTNB based Ellman's method"}, "Acetylcholinesterase [1]": {"target": "T1, Acetylcholinesterase (Homo sapiens, UniProt P22303)", "T1 sequence (P22303 whole entry)": "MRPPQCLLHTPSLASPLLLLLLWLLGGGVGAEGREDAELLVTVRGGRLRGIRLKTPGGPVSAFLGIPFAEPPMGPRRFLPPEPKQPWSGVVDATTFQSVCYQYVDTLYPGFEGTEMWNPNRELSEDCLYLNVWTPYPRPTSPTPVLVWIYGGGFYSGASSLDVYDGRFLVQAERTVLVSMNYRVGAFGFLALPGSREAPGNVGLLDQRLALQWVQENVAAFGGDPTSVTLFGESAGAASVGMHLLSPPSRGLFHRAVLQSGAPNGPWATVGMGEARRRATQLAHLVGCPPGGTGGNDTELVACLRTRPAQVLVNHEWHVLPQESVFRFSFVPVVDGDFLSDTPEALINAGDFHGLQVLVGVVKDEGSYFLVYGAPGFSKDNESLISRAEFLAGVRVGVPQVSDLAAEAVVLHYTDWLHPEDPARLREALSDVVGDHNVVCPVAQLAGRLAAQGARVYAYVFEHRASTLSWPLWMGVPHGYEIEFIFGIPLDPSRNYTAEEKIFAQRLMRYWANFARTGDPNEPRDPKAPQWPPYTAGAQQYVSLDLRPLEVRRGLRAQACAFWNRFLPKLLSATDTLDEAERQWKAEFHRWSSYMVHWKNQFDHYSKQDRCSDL", "test": "Inhibition of human AchE expressed in human HEK293 cells using acetylthiocholine as substrate preincubated for 10 mins followed by substrate addition and measured after 5 to 8 mins by DTNB based Ellman's spectrophotometric method", "type": "cell-based"}, "[2]": {"target": "T2, Amine oxidase [flavin-containing] A (Homo sapiens, UniProt P21397)", "T2 sequence (P21397 whole entry)": "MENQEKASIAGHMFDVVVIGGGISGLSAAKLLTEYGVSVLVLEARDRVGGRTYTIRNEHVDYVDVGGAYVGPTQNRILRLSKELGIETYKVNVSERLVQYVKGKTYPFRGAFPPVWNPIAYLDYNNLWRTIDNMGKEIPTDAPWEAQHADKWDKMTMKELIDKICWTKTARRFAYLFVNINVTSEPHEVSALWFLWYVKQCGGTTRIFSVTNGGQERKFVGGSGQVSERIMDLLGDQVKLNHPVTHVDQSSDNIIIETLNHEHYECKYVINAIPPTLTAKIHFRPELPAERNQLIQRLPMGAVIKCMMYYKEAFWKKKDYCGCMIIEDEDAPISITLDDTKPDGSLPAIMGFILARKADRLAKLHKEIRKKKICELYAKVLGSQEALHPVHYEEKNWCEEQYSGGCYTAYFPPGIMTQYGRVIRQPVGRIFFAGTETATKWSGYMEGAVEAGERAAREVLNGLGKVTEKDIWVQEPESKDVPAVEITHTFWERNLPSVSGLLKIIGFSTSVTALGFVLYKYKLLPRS", "test": "Inhibition of human MAO-A using kynuramine as substrate preincubated for 5 mins followed by substrate addition and measured after 30 mins by spectroscopic analysis"}, "[3]": {"target": "T3, Amine oxidase [flavin-containing] B (Homo sapiens, UniProt P27338)", "T3 sequence (P27338 whole entry)": "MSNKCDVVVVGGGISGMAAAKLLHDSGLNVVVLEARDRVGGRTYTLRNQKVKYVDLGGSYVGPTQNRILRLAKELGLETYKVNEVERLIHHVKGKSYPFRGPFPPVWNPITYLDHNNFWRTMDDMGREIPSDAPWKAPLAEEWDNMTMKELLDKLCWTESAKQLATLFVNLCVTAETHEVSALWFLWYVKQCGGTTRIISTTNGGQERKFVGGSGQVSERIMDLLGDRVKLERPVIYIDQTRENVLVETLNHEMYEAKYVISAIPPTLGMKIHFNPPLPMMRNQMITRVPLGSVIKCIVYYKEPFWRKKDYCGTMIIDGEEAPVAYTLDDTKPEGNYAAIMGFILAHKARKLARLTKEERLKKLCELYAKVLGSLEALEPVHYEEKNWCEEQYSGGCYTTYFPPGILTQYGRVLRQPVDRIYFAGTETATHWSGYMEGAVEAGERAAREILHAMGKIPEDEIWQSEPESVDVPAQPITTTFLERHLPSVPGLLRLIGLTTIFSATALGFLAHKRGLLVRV", "test": "Inhibition of human MAO-B using kynuramine as substrate preincubated for 5 mins followed by substrate addition and measured after 30 mins by spectroscopic analysis"}, "[4]": {"test": "Antioxidant activity assessed as trolox equivalent of ORAC radical scavenging activity incubated for 15 mins by ORAC-fluorescein assay", "type": "functional"}, "Acetylcholinesterase [5]": {"target": "Acetylcholinesterase (Electrophorus electricus, UniProt O42275)", "sequence (O42275 whole entry)": "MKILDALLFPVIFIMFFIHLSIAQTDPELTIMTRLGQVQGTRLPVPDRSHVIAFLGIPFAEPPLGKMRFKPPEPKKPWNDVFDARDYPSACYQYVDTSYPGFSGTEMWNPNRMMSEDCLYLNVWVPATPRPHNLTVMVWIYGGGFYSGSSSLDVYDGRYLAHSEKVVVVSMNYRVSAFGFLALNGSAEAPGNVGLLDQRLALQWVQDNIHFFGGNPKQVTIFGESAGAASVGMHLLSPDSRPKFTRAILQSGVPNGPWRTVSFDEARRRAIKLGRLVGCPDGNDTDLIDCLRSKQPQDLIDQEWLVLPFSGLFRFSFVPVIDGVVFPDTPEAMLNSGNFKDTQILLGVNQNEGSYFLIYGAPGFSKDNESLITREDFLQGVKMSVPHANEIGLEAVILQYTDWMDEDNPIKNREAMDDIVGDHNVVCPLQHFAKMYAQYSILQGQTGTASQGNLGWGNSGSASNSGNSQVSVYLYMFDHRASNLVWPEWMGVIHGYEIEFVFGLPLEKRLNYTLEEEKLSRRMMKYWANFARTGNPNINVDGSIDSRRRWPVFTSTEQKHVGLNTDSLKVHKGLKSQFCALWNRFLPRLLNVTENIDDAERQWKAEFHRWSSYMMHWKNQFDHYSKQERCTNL", "test": "Inhibition of electric eel AChE using acetylthiocholine iodide as substrate preincubated for 5 mins followed by substrate addition and measured upto 7.5 mins by Ellman's method"}, "[6]": {"target": "Amyloid-beta precursor protein (Homo sapiens) (UniProt P05067)", "sequence (P05067 whole entry)": "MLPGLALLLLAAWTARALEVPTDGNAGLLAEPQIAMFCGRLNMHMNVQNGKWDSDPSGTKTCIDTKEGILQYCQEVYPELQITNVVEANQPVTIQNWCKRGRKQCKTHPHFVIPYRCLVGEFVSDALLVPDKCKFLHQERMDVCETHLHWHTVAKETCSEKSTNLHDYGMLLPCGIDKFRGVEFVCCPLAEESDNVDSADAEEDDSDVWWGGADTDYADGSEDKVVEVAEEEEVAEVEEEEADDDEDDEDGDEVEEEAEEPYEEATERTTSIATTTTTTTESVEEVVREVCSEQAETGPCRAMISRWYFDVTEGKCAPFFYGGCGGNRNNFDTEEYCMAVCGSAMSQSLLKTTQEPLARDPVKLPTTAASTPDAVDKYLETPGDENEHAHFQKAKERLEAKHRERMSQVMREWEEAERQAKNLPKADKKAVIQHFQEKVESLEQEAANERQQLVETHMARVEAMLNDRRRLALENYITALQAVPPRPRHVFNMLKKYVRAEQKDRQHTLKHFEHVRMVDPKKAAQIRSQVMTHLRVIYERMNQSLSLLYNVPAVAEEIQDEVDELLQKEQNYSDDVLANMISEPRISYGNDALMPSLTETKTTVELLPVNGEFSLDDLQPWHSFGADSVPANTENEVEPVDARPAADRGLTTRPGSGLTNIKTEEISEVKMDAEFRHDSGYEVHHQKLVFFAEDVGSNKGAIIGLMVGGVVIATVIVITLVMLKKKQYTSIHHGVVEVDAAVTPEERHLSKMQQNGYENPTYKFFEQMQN", "test": "Inhibition of Amyloid beta (1 to 42) (unknown origin) self aggregation and at 20 uM and measured upto 24 hrs by ThT-based fluorimetric assay"}, "Acetylcholinesterase [7]": {"target": "T1, Acetylcholinesterase", "test": "Inhibition of recombinant human AchE using acetylthiocholine iodide as substrate and measured upto 2 mins by Ellman's method"}, "Acetylcholinesterase [8]": {"target": "T1, Acetylcholinesterase", "test": "Inhibition of AchE (unknown origin) using acetylthiocholine iodide as substrate preincubated for 15 mins followed by substrate addition and measured upto 4 mins by Ellman's spectrophotometric method"}, "[9]": {"target": "T2, Amine oxidase [flavin-containing] A", "test": "Inhibition of recombinant human MAO-A using tyramine as substrate preincubated for 30 mins followed by substrate addition and measured after 30 mins by amplex red reagent based fluorometric method"}, "[10]": {"target": "T3, Amine oxidase [flavin-containing] B", "test": "Inhibition of recombinant human MAO-B using tyramine as substrate preincubated for 30 mins followed by substrate addition and measured after 30 mins by amplex red reagent based fluorometric method"}, "[11]": {"target": "T2, Amine oxidase [flavin-containing] A", "test": "Inhibition of human MAO-A using tyramine as substrate preincubated for 10 mins followed by substrate addition and measured after 30 mins by fluorometric method"}, "[12]": {"target": "T3, Amine oxidase [flavin-containing] B", "test": "Inhibition of human MAO-B using tyramine as substrate preincubated for 10 mins followed by substrate addition and measured after 30 mins by fluorometric method"}, "[13]": {"target": "T3, Amine oxidase [flavin-containing] B", "test": "Inhibition of human MAO-B assessed as recovery of enzyme activity by dialysis method", "parameters": "scale not given: the % may be the effect or the level left"}},
  "data": [
    {"smiles": "COc1ccc2[nH]cc(CCNC(=O)CN(CCCCC3CCN(Cc4ccccc4)CC3)C(=O)c3cc(=O)c4ccccc4o3)c2c1", "values": [
      {"measurement": "IC50", "setting": "Cholinesterase", "value": 0.012, "unit": "µM"},
      {"measurement": "IC50", "setting": "Acetylcholinesterase [1]", "value": 2, "unit": "µM"},
      {"measurement": "IC50", "setting": "[2]", "value": 3, "unit": "µM"},
      {"measurement": "IC50", "setting": "[3]", "value": 21, "unit": "µM"},
      {"measurement": "Activity", "setting": "[4]", "value": 3.04, "unit": "equiv"}
    ]},
    {"smiles": "Cc1ccc(C#CCOc2ccccc2/C=C/c2cc(=O)c3ccccc3o2)cc1", "values": [
      {"measurement": "IC50", "setting": "Acetylcholinesterase [5]", "value": 3, "unit": "µM"},
      {"measurement": "inhibition", "setting": "[6]", "value": 66, "unit": "%"}
    ]},
    {"smiles": "COc1ccc2c(=O)cc(C(=O)NCCN3CCCCC3)oc2c1", "values": [
      {"measurement": "IC50", "setting": "Acetylcholinesterase [7]", "value": 0.09, "unit": "µM"}
    ]},
    {"smiles": "CCOP(=O)(OCC)C(NCCc1ccc(OC)cc1)c1coc2ccccc2c1=O", "note": "(centres undefined)", "values": [
      {"measurement": "IC50", "setting": "Acetylcholinesterase [8]", "value": 0.1, "unit": "µM"}
    ]},
    {"smiles": "O=C(OCc1ccc(Cl)cc1)c1coc2ccccc2c1=O", "values": [
      {"measurement": "IC50", "setting": "[9]", "value": 19, "unit": "µM"},
      {"measurement": "IC50", "setting": "[10]", "value": 10, "unit": "µM"}
    ]},
    {"smiles": "Cc1ccc(NC(=O)c2c(OCc3ccccc3)ccc3c(=O)c(C)c(C)oc23)cc1", "values": [
      {"measurement": "IC50", "setting": "[11]", "value": 4, "unit": "µM"},
      {"measurement": "IC50", "setting": "[12]", "value": 0.1, "unit": "µM"},
      {"measurement": "Activity", "setting": "[13]", "value": 70, "unit": "%"}
    ]}
  ]
}
